Among the data in BindingDB's records for PubMed 35063633 (Kumamoto University, 2022) are IC50 values, retold here.

For orientation: IC50 means the concentration needed to halve the response being measured. A higher IC50 goes with a need for much substance.

The nature of assay [1]: Inhibition of human constitutive proteasome subunit beta type-1 in human erythrocytes using fluorogenic substrate by […].
Assay [2] can be described thus: Inhibition of human constitutive proteasome subunit beta type-2 in human erythrocytes using fluorogenic substrate by […].

Regarding `CCC(C)/C=C(\C)c1cc2c(cn1)C(=O)C1=C(N)C(=O)C(OC)=CC1=C2` (stereo unspecified), the IC50 in assay [1] was 17 µM; in assay [2], 42 µM.
As for `CCC(C)/C=C(\C)C1=Cc2cc3c(c(O)c2CO1)C(=O)C(O)(CC(C)=O)C(OC)=C3` (stereo unspecified), the IC50 in assay [1] is 19 µM; in assay [2], over 50 µM.
As for `CCC(C)/C=C(\C)c1cc2c(cn1)C(=O)c1c(cc(OC)c(O)c1O)C2=O` (stereo unspecified), the IC50 in assay [1] and in assay [2] was over 50 µM each time.
